± gives the expanded uncertainty stated by the source.
Columns and labels:
[1] = refractive index (Na D-line) (dimensionless); conditions: 298.2 K; 101.33 kPa; Liquid; Abbe refractometer
[2] = Boiling temperature at pressure P; conditions: 101.33 kPa; Liquid
[3] = 298.2 K; 101.33 kPa; Liquid; Vibrating tube method

Row | SMILES | refractive index [1] | Boiling temperature at pressure P [2] | mass density [3]
1 | CCO [ethanol] | 1.3595 ± 0.0015 | 78.00 ± 0.4 °C | 785.2 ± 0.2 kg/m3
2 | C1CC[C@H]2CCCC[C@@H]2C1 [trans-decahydronaphthalene] | 1.4682 ± 0.0016 | 187.20 ± 0.4 °C | 868.25 ± 0.15 kg/m3

— the NIST ThermoML archive (doi:10.1016/j.fluid.2006.01.024)
